This assay addresses T1, human vasopressin V1a receptor subtype (Homo sapiens, UniProt P37288).
T1 construct: host or cells: CHO cells, stably transfected (pZeoSV vector for the Thibonnier line)
As to the kind of experiment: Vasopressin binding in CHO cell membranes expressing human vasopressin V1a subtype receptors ([3H]Manning ligand radioligand binding). The conditions noted are these: 100 nM. The protocol: Vasopressin Binding in Chinese Hamster Ovary Cell Membranes Expressing Human Vasopressin V1a Subtype Receptors
The trypsin is removed by aspiration and the cells dislodged by tapping. Cell Culture medium (e.g. 30 mL for 1:30 split) is immediately added and mixed well to inactivate trypsin. 1 mL of detached cells is added to new culture flasks containing fresh cell culture medium (e.g., into 25 mL per T-150 flask), and mixed gently. The cells are incubated at 37° C. in 5% CO2. The medium is changed at 3 to 4 days interval (or as appropriate). […] All steps are done under sterile conditions.
The cells are washed twice gently with Hank's Balanced Salt solution (e.g,. use 10 mL per T-150 flask). […] The contents are transferred to centrifuge tubes (50 mL) kept in an ice bath. All subsequent steps are done at 4° C. The tubes are centrifuged at 300×g for 15 min (1380 rpm on SORVAL, Model RT6000D, using the rotor for 50 mL tubes). The supernatant is discarded and the cells suspended in homogenizing buffer(10 mM Tris-HCl containing 0.25 M sucrose and 1 mM EDTA, pH 7.4) ensuring that the volume of the buffer is about ten times the volume of the cell pellet. The cells are pooled into a centrifuge tube (50 mL) and homogenized with Polytron at setting 6 for 10 sec. The homogenate is transferred into a Potter-Elvjehm homogenizer and homogenized with 3 strokes. The homogenate is centrifuged at 1500×g for 10 min at 4° C. (3100 rpm using SORVAL, model RT6000D, using the rotor for 50 mL tubes). The pellet is discarded. The supernatant is centrifuged at 100,000×g for 60 min. at 4° C. (Beckman L8-80M ultracentrifuge; spin at 37,500 rpm with rotor type 70 Ti for 50 mL tubes; 38,000 rpm with type 80Ti for 15 mL tubes; or 35,800 rpm with rotor type 45Ti). The supernantant is discarded and the pellet suspended in 3 to 4 mL of Tris buffer (50 mM TRIS-HCl, pH 7.4). The protein content is estimated by the Bradford or Lowry method. The volume of the membrane suspension is adjusted with the membrane buffer (50 mM Tris-HCl containing 0.1% BSA and 0.1 mM PMSF) to give 3.0 mg/mL (or as appropriate) of protein. The membranes are aliquoted and stored at −70° C.
In wells of a 96-well format microtiter plate, is added 90, 110 or 130 μL (to make up a final volume of 200 μL) of assay buffer containing 50 mM of Tris-HCl (pH 7.4), BSA (heat inactivated, protease-free), […], 1 mg % aprotinin, 1 mg % leupeptin, 2 mg % 1,10-phenanthroline, 10 mg % trypsin inhibitor, and 0.1 mM PMSF. The inhibitors are added on the day of the experiment. The components are mixed at room temperature, and then kept in ice bath following adjustment of the pH to 7.4. […] 20 μL of 50% DMSO is added for Manning and other peptide ligands and the assay buffer volume is adjusted accordingly. To each well is added 50 μL of frozen membrane suspension thawed immediately prior to use and diluted in the assay buffer to the required concentration (equivalent to 25 to 50 μg of protein/well as needed). 20 μL of 8 nM [^3H]Manning ligand in the assay buffer, prepared just before use, is added, and incubated at room temperature for 60 min. shaking the plate on a mechanical shaker for the first 15 min. The incubation is stopped by rapid filtration of the plate contents followed by wash with ice-cold buffer (50 mM Tris-HCl, pH 7.4) using a cell harvester (Tomtek and Printed filtermat-B filter paper). The filter paper is thoroughly dried (7–12 min. in a microwave oven) and impregnated with MeltiLex B/H melt-on scintillation wax sheets and the radioactivity counted in a betaplate scintillation counter.
Binding data is either reported as percent inhibition at a certain concentration or if an IC50 was calculated, as a nanomolar concentration.
T1 sequence (P37288 whole entry): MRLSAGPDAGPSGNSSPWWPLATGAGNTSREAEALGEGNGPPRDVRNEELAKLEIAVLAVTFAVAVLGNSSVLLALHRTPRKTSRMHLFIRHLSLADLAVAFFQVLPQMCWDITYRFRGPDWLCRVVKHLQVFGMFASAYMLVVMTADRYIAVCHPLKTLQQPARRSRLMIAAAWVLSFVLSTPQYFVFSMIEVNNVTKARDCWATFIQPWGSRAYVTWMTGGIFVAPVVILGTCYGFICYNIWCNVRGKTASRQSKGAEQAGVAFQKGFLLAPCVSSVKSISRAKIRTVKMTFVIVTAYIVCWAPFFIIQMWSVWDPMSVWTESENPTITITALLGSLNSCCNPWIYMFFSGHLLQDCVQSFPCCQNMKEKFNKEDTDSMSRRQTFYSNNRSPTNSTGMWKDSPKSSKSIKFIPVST
Regarding `COc1cccc(-c2ccc(C(=O)N3Cc4ccc(C(=O)NCc5ccncc5)n4Cc4ccccc43)cc2OC)c1` [Example 98], the “V1a % inhibition @ 100 nM” value is 24%.
One may read the inhibition as how much of the control response was suppressed. Low readings indicate little suppression, high ones strong suppression. As for `COc1cc(C(=O)N2Cc3ccc(C(=O)N(C)Cc4cccnc4)n3Cc3ccccc32)ccc1-c1ccccc1C` [Example 106, 10-[(2-Methoxy-2′-methyl-[1,1′-biphenyl]-4-yl)carbonyl]-N-methyl-N-(3-pyridinylmethyl)-10,11-dihydro-5H-pyrrolo[2,1-c][1,4]benzodiazepine-3-carboxamide], testing at 0.1 µM gave an inhibition of 68%.
Regarding `COc1cc(-c2ccccc2C)c(Cl)cc1C(=O)N1Cc2ccc(C(=O)N(C)Cc3cccnc3)n2Cc2ccccc21` [Example 107, 10-[(6-Chloro-3-methoxy-2′-methyl-[1,1′-biphenyl]-4-yl)carbonyl]-N-methyl-N-(3-pyridinylmethyl)-10,11-dihydro-5H-pyrrolo[2,1-c][1,4]benzodiazepine-3-carboxamide], testing at 0.1 µM gave an inhibition of 12%.
As to `COc1cccc(-c2cc(OC)c(C(=O)N3Cc4ccc(C(=O)N(C)Cc5cccnc5)n4Cc4ccccc43)cc2Cl)c1` [Example 108, 10-[(6-Chloro-3,3′-dimethoxy-[1,1′-biphenyl]-4-yl)carbonyl]-N-methyl-N-(3-pyridinylmethyl)-10,11-dihydro-5H-pyrrolo[2,1-c][1,4]benzodiazepine-3-carboxamide], at 0.1 µM the inhibition was 4%.
With `COc1cc(C(=O)N2Cc3ccc(C(=O)N(C)Cc4cccnc4)n3Cc3ccccc32)ccc1-c1cccc2ccccc12` [Example 109, 10-[3-Methoxy-4-(naphthalen-1-yl)benzoyl]-N-methyl-N-(3-pyridinylmethyl)-10,11-dihydro-5H-pyrrolo[2,1-c][1,4]benzodiazepine-3-carboxamide], the inhibition at 0.1 µM was 7%.
On to `COc1cccc(-c2ccc(C(=O)N3Cc4ccc(C(=O)N(C)Cc5cccnc5)n4Cc4ccccc43)cc2OC)c1` [Example 110], for which the “V1a % inhibition @ 100 nM” value was determined as 49%.
As to `CN(Cc1cccnc1)C(=O)c1ccc2n1Cc1ccccc1N(C(=O)c1ccc(-c3cccc4ccccc34)cc1Cl)C2` [Example 111, 10-[2-Chloro-4-(naphthalen-1-yl)benzoyl]-N-methyl-N-(3-pyridinylmethyl)-10,11-dihydro-5H-pyrrolo[2,1-c][1,4]benzodiazepine-3-carboxamide], testing at 0.1 µM gave an inhibition of 4%.
`Cc1ccccc1-c1ccc(C(=O)N2Cc3ccc(C(=O)N4CCN(c5ccncc5)CC4)n3Cc3ccccc32)cc1C` [Example 114, {10-[(2,2′-Dimethyl-[1,1′-biphenyl]-4-yl)carbonyl]-10,11-dihydro-5H-pyrrolo[2,1-c][1,4]benzodiazepin-3-yl}[4-(4-pyridinyl)-1-piperazinyl]methanone] gave an inhibition at 0.1 µM of 56%.
The same measure, in the same setting: with `COc1cccc(-c2ccc(C(=O)N3Cc4ccc(C(=O)N5CCN(c6ccncc6)CC5)n4Cc4ccccc43)cc2C)c1` [Example 115, {10-[(3′-Methoxy-2-methyl-[1,1′-biphenyl]-4-yl)carbonyl]-10,11-dihydro-5H-pyrrolo[2,1-c][1,4]benzodiazepin-3-yl}[4-(4-pyridinyl)-1-piperazinyl]methanone] the figure was 22%.
`COc1ccccc1-c1ccc(C(=O)N2Cc3ccc(C(=O)N4CCN(c5ccncc5)CC4)n3Cc3ccccc32)cc1` [Example 116, {10-[(2′-Methoxy-[1,1′-biphenyl]-4-yl)carbonyl]-10,11-dihydro-5H-pyrrolo[2,1-c][1,4]benzodiazepin-3-yl}[4-(4-pyridinyl)-1-piperazinyl]methanone] came in with an inhibition at 0.1 µM of 77%.
Consider `Cc1ccccc1-c1ccc(C(=O)N2Cc3ccc(C(=O)N4CCN(c5ccncc5)CC4)n3Cc3ccccc32)cc1` [Example 117, {10-[(2′-Methyl-[1,1′-biphenyl]-4-yl)carbonyl]-10,11-dihydro-5H-pyrrolo[2,1-c][1,4]benzodiazepin-3-yl}[4-(4-pyridinyl)-1-piperazinyl]methanone], for which at 0.1 µM the inhibition was 1%.
Take `COc1cc(C(=O)N2Cc3ccc(C(=O)N4CCN(c5ccncc5)CC4)n3Cc3ccccc32)ccc1-c1ccccc1C` [Example 118]: the “V1a % inhibition @ 100 nM” value worked out at 62%.
With `COc1cc(-c2ccccc2C)c(Cl)cc1C(=O)N1Cc2ccc(C(=O)N3CCN(c4ccncc4)CC3)n2Cc2ccccc21` [Example 119, {10-[(6-Chloro-3-methoxy-2′-methyl-[1,1′-biphenyl]-4-yl)carbonyl]-10,11-dihydro-5H-pyrrolo[2,1-c][1,4]benzodiazepin-3-yl}[4-(4-pyridinyl)-1-piperazinyl]methanone], the inhibition at 0.1 µM came to 9%.
`COc1cccc(-c2cc(OC)c(C(=O)N3Cc4ccc(C(=O)N5CCN(c6ccncc6)CC5)n4Cc4ccccc43)cc2Cl)c1` [Example 120, {10-[(6-Chloro-3,3′-dimethoxy-[1,1′-biphenyl]-4-yl)carbonyl]-10,11-dihydro-5H-pyrrolo[2,1-c][1,4]benzodiazepin-3-yl}[4-(4-pyridinyl)-1-piperazinyl]methanone] yielded an inhibition at 0.1 µM of 6%.
The same measure, in the same setting: the figure for `COc1cc(C(=O)N2Cc3ccc(C(=O)N4CCN(c5ccncc5)CC4)n3Cc3ccccc32)ccc1-c1cccc2ccccc12` [Example 121, {10-[3-Methoxy-4-(naphthalen-1-yl)benzoyl]-10,11-dihydro-5H-pyrrolo[2,1-c][1,4]benzodiazepin-3-yl}[4-(4-pyridinyl)-1-piperazinyl]methanone] is 17%; for `COc1ccccc1-c1ccc(C(=O)N2Cc3ccc(C(=O)N4CCN(c5ccncc5)CC4)n3Cc3ccccc32)cc1OC` [Example 122, {10-[(2,2′-Dimethoxy-[1,1′-biphenyl]-4-yl)carbonyl]-10,11-dihydro-5H-pyrrolo[2,1-c][1,4]benzodiazepin-3-yl}[4-(4-pyridinyl)-1-piperazinyl]methanone] it is 9%.
The compound `COc1cccc(-c2ccc(C(=O)N3Cc4ccc(C(=O)N5CCN(c6ccncc6)CC5)n4Cc4ccccc43)cc2OC)c1` [Example 123, {10-[(2,3′-Dimethoxy-[1,1′-biphenyl]-4-yl)carbonyl]-10,11-dihydro-5H-pyrrolo[2,1-c][1,4]benzodiazepin-3-yl}[4-(4-pyridinyl)-1-piperazinyl]methanone] showed an inhibition at 0.1 µM of 71%.
The compound `O=C(c1ccc2n1Cc1ccccc1N(C(=O)c1ccc(-c3cccc4ccccc34)cc1Cl)C2)N1CCN(c2ccncc2)CC1` [Example 124, {10-[2-Chloro-4-(naphthalen-1-yl)benzoyl]-10,11-dihydro-5H-pyrrolo[2,1-c][1,4]benzodiazepin-3-yl}[4-(4-pyridinyl)-1-piperazinyl]methanone] yielded an inhibition at 0.1 µM of 11%.
The same measure, in the same setting: with `COc1ccccc1-c1ccc(C(=O)N2Cc3ccc(C(=O)N(C)CCc4ccncc4)n3Cc3ccccc32)cc1OC` [Example 125, 10-[(2,2′-Dimethoxy-[1,1′-biphenyl]-4-yl)carbonyl]-N-methyl-N-[2-(4-pyridinyl)ethyl]-10,11-dihydro-5H-pyrrolo[2,1-c][1,4]benzodiazepine-3-carboxamide] the figure was 17%; with `COc1ccccc1-c1ccc(C(=O)N2Cc3ccc(C(=O)N(C)CCc4ccncc4)n3Cc3ccccc32)cc1C` [Example 126, 10-[(2′-Methoxy-2-methyl-[1,1′-biphenyl]-4-yl)carbonyl]-N-methyl-N-[2-(4-pyridinyl)ethyl]-10,11-dihydro-5H-pyrrolo[2,1-c][1,4]benzodiazepine-3-carboxamide], 38%.
